Laboratory results from PubChem BioAssay (NCI).
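Protocol summary: plate cells (96-well), add compound at 5 concentrations, incubate 48 h, interpolate endpoints linearly. Abbreviation: GI50, concentration required for 50% inhibition of growth. TGI: total growth inhibition.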

How the values were obtained:
Test in all cases: NCI anticancer screen, dose series, 48 h
KM12 colon = system: KM12 colon
A549 NSCLC = system: A549 NSCLC
HCT-116 colon = system: HCT-116 colon
SK-MEL-5 melanoma = system: SK-MEL-5 melanoma
SW-620 colon = system: SW-620 colon
CAKI-1 renal = system: CAKI-1 renal
SF-295 CNS = system: SF-295 CNS
786-0 renal = system: 786-0 renal
CCRF-CEM leukemia = system: CCRF-CEM leukemia
EKVX NSCLC = system: EKVX NSCLC
UACC-257 melanoma = system: UACC-257 melanoma
TK-10 renal = system: TK-10 renal
SK-MEL-2 melanoma = system: SK-MEL-2 melanoma
SF-539 CNS = system: SF-539 CNS
BT-549 breast = system: BT-549 breast
MCF7 breast = system: MCF7 breast
HCT-15 colon = system: HCT-15 colon
MDA-MB-231 breast = system: MDA-MB-231 breast
NCI-H460 lung = system: NCI-H460 lung
K-562 leukemia = system: K-562 leukemia
OVCAR-8 ovarian = system: OVCAR-8 ovarian
U251 CNS = system: U251 CNS
NCI/ADR-RES ovarian = system: NCI/ADR-RES ovarian
RXF 393 renal = system: RXF 393 renal
HOP-92 NSCLC = system: HOP-92 NSCLC
MOLT-4 leukemia = system: MOLT-4 leukemia
MDA-MB-435 = system: MDA-MB-435
ACHN renal = system: ACHN renal
IGROV1 ovarian = system: IGROV1 ovarian
COLO 205 colon = system: COLO 205 colon
M14 melanoma = system: M14 melanoma
SNB-19 CNS = system: SNB-19 CNS
PC-3 prostate = system: PC-3 prostate
OVCAR-5 ovarian = system: OVCAR-5 ovarian
HS 578T breast = system: HS 578T breast
RPMI-8226 leukemia = system: RPMI-8226 leukemia
SNB-75 CNS = system: SNB-75 CNS
LOX IMVI melanoma = system: LOX IMVI melanoma
HOP-62 NSCLC = system: HOP-62 NSCLC
DU-145 prostate = system: DU-145 prostate
OVCAR-4 ovarian = system: OVCAR-4 ovarian
NCI-H23 lung = system: NCI-H23 lung
UO-31 renal = system: UO-31 renal
T-47D breast = system: T-47D breast
SK-MEL-28 melanoma = system: SK-MEL-28 melanoma
SK-OV-3 ovarian = system: SK-OV-3 ovarian
SN12C renal = system: SN12C renal
SF-268 CNS = system: SF-268 CNS
HT29 colon = system: HT29 colon
UACC-62 melanoma = system: UACC-62 melanoma
HCC-2998 colon = system: HCC-2998 colon
OVCAR-3 ovarian = system: OVCAR-3 ovarian
NCI-H522 lung = system: NCI-H522 lung

## C=CCC(N[C@H](CO)C(C)C)c1cn(C(=O)OCC)c2ccccc12 (stereo partly specified)
KM12 colon
  GI50: 21.7 µM
  TGI: 59.7 µM
A549 NSCLC
  GI50: 24.9 µM
  TGI: 82 µM
HCT-116 colon
  GI50: 24.2 µM
  TGI: 68.8 µM
SK-MEL-5 melanoma
  GI50: 10.2 µM
  TGI: 23.7 µM
SW-620 colon
  GI50: 27.9 µM
  TGI: > 100 µM
CAKI-1 renal
  GI50: 13.8 µM
  TGI: 41.1 µM
SF-295 CNS
  GI50: 15.9 µM
  TGI: 38.1 µM
786-0 renal
  GI50: 28.4 µM
  TGI: 72.7 µM
CCRF-CEM leukemia
  GI50: 22.4 µM
  TGI: 70.2 µM
EKVX NSCLC
  GI50: 22.9 µM
  TGI: 77 µM
UACC-257 melanoma
  GI50: 18.3 µM
  TGI: 44.2 µM
TK-10 renal
  GI50: 13.7 µM
  TGI: 44.1 µM
SK-MEL-2 melanoma
  GI50: 42.3 µM
  TGI: > 100 µM
SF-539 CNS
  GI50: 28.2 µM
  TGI: 69.9 µM
BT-549 breast
  GI50: 24.7 µM
  TGI: 67.8 µM
MCF7 breast
  GI50: 35 µM
  TGI: > 100 µM
HCT-15 colon
  GI50: 32.4 µM
  TGI: > 100 µM
MDA-MB-231 breast
  GI50: 13.2 µM
  TGI: 31.2 µM
NCI-H460 lung
  GI50: 32.4 µM
  TGI: > 100 µM
K-562 leukemia
  GI50: 11.1 µM
  TGI: 25.8 µM
OVCAR-8 ovarian
  GI50: 21.7 µM
  TGI: 48.2 µM
U251 CNS
  GI50: 27.4 µM
  TGI: > 100 µM
NCI/ADR-RES ovarian
  GI50: 21.8 µM
  TGI: 61 µM
RXF 393 renal
  GI50: 18.9 µM
  TGI: 54.2 µM
HOP-92 NSCLC
  GI50: 14.1 µM
  TGI: 45.6 µM
MOLT-4 leukemia
  GI50: 15.4 µM
  TGI: 34.7 µM
MDA-MB-435
  GI50: 20.3 µM
  TGI: 50.5 µM
ACHN renal
  GI50: 32.1 µM
  TGI: > 100 µM
IGROV1 ovarian
  GI50: 7.81 µM
  TGI: 57.1 µM
COLO 205 colon
  GI50: 25.4 µM
  TGI: 65.9 µM
M14 melanoma
  GI50: 21.3 µM
  TGI: 46 µM
SNB-19 CNS
  GI50: 59.9 µM
  TGI: > 100 µM
PC-3 prostate
  GI50: 15.9 µM
  TGI: 43.9 µM
OVCAR-5 ovarian
  GI50: 48.6 µM
  TGI: > 100 µM
HS 578T breast
  GI50: 22.7 µM
  TGI: > 100 µM
RPMI-8226 leukemia
  GI50: 13.3 µM
  TGI: 40.7 µM
SNB-75 CNS
  GI50: 69.3 µM
  TGI: > 100 µM
LOX IMVI melanoma
  GI50: 19.4 µM
  TGI: 49.5 µM
HOP-62 NSCLC
  GI50: 28.6 µM
  TGI: 89.1 µM
DU-145 prostate
  GI50: 30.1 µM
  TGI: > 100 µM
OVCAR-4 ovarian
  GI50: 49.6 µM
  TGI: > 100 µM
NCI-H23 lung
  GI50: 19.1 µM
  TGI: 49.3 µM
UO-31 renal
  GI50: 45.2 µM
  TGI: > 100 µM
T-47D breast
  GI50: 39.9 µM
  TGI: > 100 µM
SK-MEL-28 melanoma
  GI50: 53.6 µM
  TGI: > 100 µM
SK-OV-3 ovarian
  GI50: 81.3 µM
  TGI: > 100 µM
SN12C renal
  GI50: 19.7 µM
  TGI: 51.6 µM
SF-268 CNS
  GI50: 33.4 µM
  TGI: > 100 µM
HT29 colon
  GI50: 36.1 µM
  TGI: > 100 µM
UACC-62 melanoma
  GI50: 22.7 µM
  TGI: 54.8 µM
HCC-2998 colon
  GI50: 17 µM
  TGI: 33.6 µM
OVCAR-3 ovarian
  GI50: 16.6 µM
  TGI: 43.3 µM
NCI-H522 lung
  GI50: 17.9 µM
  TGI: 40.2 µM
